Data reported in ChEMBL document CHEMBL1201862, “PubChem BioAssay data set” (2004).
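Assay format: 96-well plates, 48-hour exposure. Abbreviation: GI50, concentration required for 50% inhibition of growth.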 Activity calls are given as the source filed them. Cut-off read from the data, not from the text of the source: active = GI50 up to about 1.1 µM and inactive = higher.

Legend:
Test in all cases: NCI anticancer screen, dose series, 48 h
A498 = test system: A498
CCRF-CEM = test system: CCRF-CEM
HCC 2998 = test system: HCC 2998
HCT-116 = test system: HCT-116
Hs-578T = test system: Hs-578T
IGROV-1 = test system: IGROV-1
MDA-MB-231 = test system: MDA-MB-231
MOLT-4 = test system: MOLT-4
Malme-3M = test system: Malme-3M
NCI-H522 = test system: NCI-H522
NCI/ADR-RES = test system: NCI/ADR-RES
OVCAR-5 = test system: OVCAR-5
SF-295 = test system: SF-295
SK-MEL-28 = test system: SK-MEL-28
SK-MEL-2 = test system: SK-MEL-2
SK-MEL-5 = test system: SK-MEL-5
T47D = test system: T47D
TK-10 = test system: TK-10
U-251 = test system: U-251
RPMI-8226 = test system: RPMI-8226

SMILES | GI50 (A498) | GI50 (CCRF-CEM) | GI50 (HCC 2998) | GI50 (HCT-116) | GI50 (Hs-578T) | GI50 (IGROV-1) | GI50 (MDA-MB-231) | GI50 (MOLT-4) | GI50 (Malme-3M) | GI50 (NCI-H522) | GI50 (NCI/ADR-RES) | GI50 (OVCAR-5) | GI50 (SF-295) | GI50 (SK-MEL-28) | GI50 (SK-MEL-2) | GI50 (SK-MEL-5) | GI50 (T47D) | GI50 (TK-10) | GI50 (U-251) | GI50 (RPMI-8226)
O=C(/C=C/c1ccc(O)c(O)c1)OCCc1ccc2ccccc2c1 | 15.2 µM (inactive) | 4.63 µM (inactive) | 17 µM (inactive) | 5.24 µM (inactive) | 4.79 µM (inactive) | 2.32 µM (inactive) | 10.6 µM (inactive) | 2.2 µM (inactive) | 10.9 µM (inactive) | 2.38 µM (inactive) | 4.08 µM (inactive) | 16.1 µM (inactive) | 10.9 µM (inactive) | 9.14 µM (inactive) | 1.29 µM (inactive) | 3.15 µM (inactive) | 4.67 µM (inactive) | 7.11 µM (inactive) | 10.8 µM (inactive) | 
O=c1[nH]c(=O)n(COCc2ccccc2)c2ccsc12 | > 100 µM (inactive) | 60.4 µM (inactive) | > 100 µM (inactive) | > 100 µM (inactive) | 49.1 µM (inactive) | > 100 µM (inactive) | > 100 µM (inactive) | > 100 µM (inactive) | > 100 µM (inactive) | > 100 µM (inactive) | > 100 µM (inactive) | > 100 µM (inactive) |  | > 100 µM (inactive) | > 100 µM (inactive) | > 100 µM (inactive) | > 100 µM (inactive) | > 100 µM (inactive) | > 100 µM (inactive) | > 100 µM (inactive)
CCc1cc2c(c3c1CCC3=O)CC1(Cc3ccc(C)cc3C1)C2 (stereo unspecified) | 27.4 µM (inactive) | 13.6 µM (inactive) | 33.9 µM (inactive) | 17.6 µM (inactive) | 19.7 µM (inactive) | 42.9 µM (inactive) | 36.6 µM (inactive) | 11.5 µM (inactive) | 32.1 µM (inactive) | 23.8 µM (inactive) | > 100 µM (inactive) | 29.4 µM (inactive) | 80.2 µM (inactive) |  | 31.5 µM (inactive) | 18.9 µM (inactive) | 14.1 µM (inactive) | > 100 µM (inactive) | 30.5 µM (inactive) | 22.2 µM (inactive)
O=Cc1cccc2c1Oc1c(cccc1C(=O)O)S2 | > 100 µM (inactive) |  | 57.4 µM (inactive) | 28.2 µM (inactive) | 65.9 µM (inactive) | > 100 µM (inactive) | > 100 µM (inactive) | 17.3 µM (inactive) | 81.3 µM (inactive) | 81.5 µM (inactive) | 36 µM (inactive) | > 100 µM (inactive) | 52.7 µM (inactive) | > 100 µM (inactive) | > 100 µM (inactive) | 67.1 µM (inactive) | 83 µM (inactive) | > 100 µM (inactive) | 62.7 µM (inactive) | 25.7 µM (inactive)
CC(=O)OCC1OC(SC2=N/C(=C\c3ccc(Br)s3)C(=O)N2CN2CCOCC2)C(OC(C)=O)C(OC(C)=O)C1OC(C)=O (stereo unspecified) | 20.5 µM (inactive) |  | 19.8 µM (inactive) | 13.9 µM (inactive) | 19.5 µM (inactive) | 16.8 µM (inactive) | 26.7 µM (inactive) | 20 µM (inactive) | 16.5 µM (inactive) | 6.87 µM (inactive) | 20.4 µM (inactive) | 22.9 µM (inactive) | 19.5 µM (inactive) | 15.7 µM (inactive) | 0.383 µM (active) | 19.1 µM (inactive) | 27.9 µM (inactive) | 16.7 µM (inactive) | 16.3 µM (inactive) | 5.97 µM (inactive)
Cc1cccc2c1CC1(Cc3ccccc3C1=O)C2=O (stereo unspecified) | > 100 µM (inactive) | > 100 µM (inactive) | > 100 µM (inactive) | > 100 µM (inactive) | 26.2 µM (inactive) | > 100 µM (inactive) | > 100 µM (inactive) | > 100 µM (inactive) | > 100 µM (inactive) | > 100 µM (inactive) | > 100 µM (inactive) | > 100 µM (inactive) | > 100 µM (inactive) | > 100 µM (inactive) |  | > 100 µM (inactive) | > 100 µM (inactive) | > 100 µM (inactive) | > 100 µM (inactive) | > 100 µM (inactive)
COc1cc(/C=C2/SC(c3ccccc3)N(c3cccc([N+](=O)[O-])c3)C2=O)cc(OC)c1OC (stereo unspecified) | > 100 µM (inactive) | 22.2 µM (inactive) | > 100 µM (inactive) | 61.4 µM (inactive) | > 100 µM (inactive) |  | > 100 µM (inactive) | > 100 µM (inactive) | 82.8 µM (inactive) | 60.5 µM (inactive) | > 100 µM (inactive) | > 100 µM (inactive) | > 100 µM (inactive) | 55.5 µM (inactive) | > 100 µM (inactive) | 50.1 µM (inactive) | 97.5 µM (inactive) | > 100 µM (inactive) | > 100 µM (inactive) | > 100 µM (inactive)
O=C1C[C@@H](c2ccccc2)NCCCCN(O)CCCN1 | > 100 µM (inactive) | > 100 µM (inactive) | > 100 µM (inactive) | > 100 µM (inactive) | > 100 µM (inactive) | > 100 µM (inactive) | > 100 µM (inactive) | > 100 µM (inactive) | > 100 µM (inactive) | > 100 µM (inactive) | > 100 µM (inactive) | > 100 µM (inactive) | > 100 µM (inactive) | > 100 µM (inactive) | > 100 µM (inactive) | > 100 µM (inactive) | > 100 µM (inactive) | > 100 µM (inactive) | > 100 µM (inactive) | 22.3 µM (inactive)
CCCC(O)c1cn(C(NC(=O)c2ccccc2)P(=O)(OCC)OCC)nn1 (stereo unspecified) | > 100 µM (inactive) | > 100 µM (inactive) | > 100 µM (inactive) | > 100 µM (inactive) | > 100 µM (inactive) | > 100 µM (inactive) | > 100 µM (inactive) | > 100 µM (inactive) | > 100 µM (inactive) | > 100 µM (inactive) | > 100 µM (inactive) |  | > 100 µM (inactive) | > 100 µM (inactive) | > 100 µM (inactive) | > 100 µM (inactive) | > 100 µM (inactive) | > 100 µM (inactive) | > 100 µM (inactive) | > 100 µM (inactive)
CN(C)CCCn1cnc2cc(Cl)c(Cl)cc21 | > 100 µM (inactive) | 55.7 µM (inactive) | 22 µM (inactive) | 48 µM (inactive) | > 100 µM (inactive) | 56.4 µM (inactive) | > 100 µM (inactive) |  | > 100 µM (inactive) | > 100 µM (inactive) | > 100 µM (inactive) | > 100 µM (inactive) | > 100 µM (inactive) | 17.9 µM (inactive) | > 100 µM (inactive) | 53.1 µM (inactive) | 59.7 µM (inactive) | 42.7 µM (inactive) | > 100 µM (inactive) | 38.4 µM (inactive)
NNC(=O)c1ccccc1NC(=O)/C(=C/c1ccccc1O)NC(=O)c1ccccc1 | 94.6 µM (inactive) | > 100 µM (inactive) | 10.9 µM (inactive) | 88.3 µM (inactive) | 14.7 µM (inactive) | 14.5 µM (inactive) | 20.3 µM (inactive) | > 100 µM (inactive) | 25.4 µM (inactive) | 13.4 µM (inactive) | 15.6 µM (inactive) | > 100 µM (inactive) | 44.8 µM (inactive) | > 100 µM (inactive) |  | 72.3 µM (inactive) | 11.5 µM (inactive) | > 100 µM (inactive) | 33.6 µM (inactive) | > 100 µM (inactive)
CCCCCCCCCCCCCCCCNC(=O)/C(O)=C/C(=O)c1ccc(C)cc1 | > 10 µM (inactive) | > 10 µM (inactive) | > 10 µM (inactive) |  | > 10 µM (inactive) | > 10 µM (inactive) | > 10 µM (inactive) | > 10 µM (inactive) | > 10 µM (inactive) | > 10 µM (inactive) | > 10 µM (inactive) | > 10 µM (inactive) | > 10 µM (inactive) | > 10 µM (inactive) | > 10 µM (inactive) | > 10 µM (inactive) | > 10 µM (inactive) | > 10 µM (inactive) | > 10 µM (inactive) | > 10 µM (inactive)
CCNc1cc2c3c(c1)CCN3CCC2 | > 10 µM (inactive) | 4.2 µM (inactive) | > 10 µM (inactive) | > 10 µM (inactive) | > 10 µM (inactive) | > 10 µM (inactive) | > 10 µM (inactive) | > 10 µM (inactive) | > 10 µM (inactive) | 5.98 µM (inactive) | > 10 µM (inactive) |  | > 10 µM (inactive) | > 10 µM (inactive) | > 10 µM (inactive) | > 10 µM (inactive) | 4.71 µM (inactive) | > 10 µM (inactive) | > 10 µM (inactive) | 3.51 µM (inactive)
COc1cc2nc(-c3ccccc3F)nc(O)c2cc1OC | > 100 µM (inactive) | > 100 µM (inactive) | > 100 µM (inactive) | > 100 µM (inactive) | 42.9 µM (inactive) | > 100 µM (inactive) | > 100 µM (inactive) | 70.3 µM (inactive) | > 100 µM (inactive) | 89.5 µM (inactive) | > 100 µM (inactive) | > 100 µM (inactive) | > 100 µM (inactive) |  | > 100 µM (inactive) | > 100 µM (inactive) | > 100 µM (inactive) | > 100 µM (inactive) |  | > 100 µM (inactive)
